What all share (assay): selectivity profiling in a panel of 340 wild-type kinases (Reaction Biology Europe)
Common to all, as to format: binding

In assay [1] the target is T1, 340 wild-type kinases (Homo sapiens, UniProt Q9UKI8).
T1 construct: purchased Reaction Biology Europe
T1 sequence (Q9UKI8 1-766): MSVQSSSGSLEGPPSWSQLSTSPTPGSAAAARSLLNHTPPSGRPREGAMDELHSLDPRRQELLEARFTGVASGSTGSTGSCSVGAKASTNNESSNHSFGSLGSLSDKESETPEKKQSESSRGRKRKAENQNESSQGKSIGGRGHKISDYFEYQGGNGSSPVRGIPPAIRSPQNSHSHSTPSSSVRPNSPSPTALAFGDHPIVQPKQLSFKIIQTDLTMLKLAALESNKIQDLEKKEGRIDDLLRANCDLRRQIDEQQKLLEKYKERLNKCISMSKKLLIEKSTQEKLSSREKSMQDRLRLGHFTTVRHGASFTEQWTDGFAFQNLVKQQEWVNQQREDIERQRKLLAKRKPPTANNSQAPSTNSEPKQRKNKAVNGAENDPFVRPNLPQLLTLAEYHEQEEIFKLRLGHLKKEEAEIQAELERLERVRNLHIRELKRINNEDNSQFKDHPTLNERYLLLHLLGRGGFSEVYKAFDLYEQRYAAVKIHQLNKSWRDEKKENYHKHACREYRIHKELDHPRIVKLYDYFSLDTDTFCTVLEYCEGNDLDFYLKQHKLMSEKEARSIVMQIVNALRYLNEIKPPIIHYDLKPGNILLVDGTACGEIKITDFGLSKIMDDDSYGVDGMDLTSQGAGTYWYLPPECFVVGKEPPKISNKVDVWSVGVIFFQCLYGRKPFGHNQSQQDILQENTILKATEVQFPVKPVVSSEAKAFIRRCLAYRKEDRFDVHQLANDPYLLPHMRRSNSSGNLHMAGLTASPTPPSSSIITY

Assay [2] deals with T2, 340 wild-type kinases (Homo sapiens, UniProt P49336).
T2 construct: purchased Reaction Biology Europe
T2 sequence (P49336 whole entry): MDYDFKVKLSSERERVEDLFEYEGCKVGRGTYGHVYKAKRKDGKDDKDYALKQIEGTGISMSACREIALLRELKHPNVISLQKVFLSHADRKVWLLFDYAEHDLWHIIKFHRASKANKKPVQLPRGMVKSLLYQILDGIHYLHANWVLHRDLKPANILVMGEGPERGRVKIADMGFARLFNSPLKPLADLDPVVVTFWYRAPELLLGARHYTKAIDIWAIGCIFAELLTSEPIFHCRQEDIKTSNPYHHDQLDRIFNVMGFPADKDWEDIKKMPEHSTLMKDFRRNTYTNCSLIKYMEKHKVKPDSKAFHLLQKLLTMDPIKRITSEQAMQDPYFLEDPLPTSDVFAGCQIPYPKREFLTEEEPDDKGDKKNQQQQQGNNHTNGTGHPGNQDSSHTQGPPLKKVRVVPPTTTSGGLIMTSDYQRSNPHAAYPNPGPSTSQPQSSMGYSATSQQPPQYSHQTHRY

The target in assay [3] is T3, 340 wild-type kinases (Homo sapiens, UniProt P41279).
T3 construct: purchased Reaction Biology Europe
T3 sequence (P41279 whole entry): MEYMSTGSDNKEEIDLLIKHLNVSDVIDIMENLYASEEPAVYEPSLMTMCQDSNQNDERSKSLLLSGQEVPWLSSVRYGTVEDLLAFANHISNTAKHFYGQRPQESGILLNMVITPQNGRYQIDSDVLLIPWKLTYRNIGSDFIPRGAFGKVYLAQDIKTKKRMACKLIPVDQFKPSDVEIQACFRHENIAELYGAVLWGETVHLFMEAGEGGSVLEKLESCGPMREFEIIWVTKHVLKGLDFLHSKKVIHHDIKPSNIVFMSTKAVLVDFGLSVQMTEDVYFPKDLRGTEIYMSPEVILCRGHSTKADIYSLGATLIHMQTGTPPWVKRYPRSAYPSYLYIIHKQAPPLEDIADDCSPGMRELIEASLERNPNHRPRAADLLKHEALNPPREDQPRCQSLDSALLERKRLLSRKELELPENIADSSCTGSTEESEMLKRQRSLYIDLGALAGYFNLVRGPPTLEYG

Assay [4] has as its target T4, 340 wild-type kinases (Homo sapiens, UniProt P54760).
T4 construct: purchased Reaction Biology Europe
T4 sequence (P54760 16-987): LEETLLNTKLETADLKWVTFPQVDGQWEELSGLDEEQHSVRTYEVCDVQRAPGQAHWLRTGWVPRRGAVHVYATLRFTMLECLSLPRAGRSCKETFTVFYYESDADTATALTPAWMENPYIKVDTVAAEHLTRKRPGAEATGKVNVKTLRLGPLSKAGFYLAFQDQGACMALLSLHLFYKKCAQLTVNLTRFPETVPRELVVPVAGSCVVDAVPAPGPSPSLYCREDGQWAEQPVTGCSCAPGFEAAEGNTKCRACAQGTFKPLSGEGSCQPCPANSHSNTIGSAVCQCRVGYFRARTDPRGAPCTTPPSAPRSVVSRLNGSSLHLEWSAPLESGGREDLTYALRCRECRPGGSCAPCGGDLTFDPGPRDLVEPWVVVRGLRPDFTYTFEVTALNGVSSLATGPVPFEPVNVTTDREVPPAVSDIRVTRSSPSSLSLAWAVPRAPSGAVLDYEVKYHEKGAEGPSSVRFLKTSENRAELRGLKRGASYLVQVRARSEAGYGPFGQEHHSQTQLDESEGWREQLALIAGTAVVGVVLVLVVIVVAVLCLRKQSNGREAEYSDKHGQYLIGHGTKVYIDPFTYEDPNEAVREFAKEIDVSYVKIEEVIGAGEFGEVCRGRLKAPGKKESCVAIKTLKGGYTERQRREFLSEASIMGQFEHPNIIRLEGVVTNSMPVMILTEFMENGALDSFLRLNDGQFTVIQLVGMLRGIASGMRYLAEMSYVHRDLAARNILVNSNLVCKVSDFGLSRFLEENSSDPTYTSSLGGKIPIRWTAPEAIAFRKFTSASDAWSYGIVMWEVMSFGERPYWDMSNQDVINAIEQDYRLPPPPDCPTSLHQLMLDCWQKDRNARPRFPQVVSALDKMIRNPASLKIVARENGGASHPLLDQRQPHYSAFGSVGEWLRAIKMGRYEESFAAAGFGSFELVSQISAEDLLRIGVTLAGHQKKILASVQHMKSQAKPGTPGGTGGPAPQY

In assay [5] the target is T5, 340 wild-type kinases (Homo sapiens, UniProt Q14289).
T5 construct: purchased Reaction Biology Europe
T5 sequence (Q14289 whole entry): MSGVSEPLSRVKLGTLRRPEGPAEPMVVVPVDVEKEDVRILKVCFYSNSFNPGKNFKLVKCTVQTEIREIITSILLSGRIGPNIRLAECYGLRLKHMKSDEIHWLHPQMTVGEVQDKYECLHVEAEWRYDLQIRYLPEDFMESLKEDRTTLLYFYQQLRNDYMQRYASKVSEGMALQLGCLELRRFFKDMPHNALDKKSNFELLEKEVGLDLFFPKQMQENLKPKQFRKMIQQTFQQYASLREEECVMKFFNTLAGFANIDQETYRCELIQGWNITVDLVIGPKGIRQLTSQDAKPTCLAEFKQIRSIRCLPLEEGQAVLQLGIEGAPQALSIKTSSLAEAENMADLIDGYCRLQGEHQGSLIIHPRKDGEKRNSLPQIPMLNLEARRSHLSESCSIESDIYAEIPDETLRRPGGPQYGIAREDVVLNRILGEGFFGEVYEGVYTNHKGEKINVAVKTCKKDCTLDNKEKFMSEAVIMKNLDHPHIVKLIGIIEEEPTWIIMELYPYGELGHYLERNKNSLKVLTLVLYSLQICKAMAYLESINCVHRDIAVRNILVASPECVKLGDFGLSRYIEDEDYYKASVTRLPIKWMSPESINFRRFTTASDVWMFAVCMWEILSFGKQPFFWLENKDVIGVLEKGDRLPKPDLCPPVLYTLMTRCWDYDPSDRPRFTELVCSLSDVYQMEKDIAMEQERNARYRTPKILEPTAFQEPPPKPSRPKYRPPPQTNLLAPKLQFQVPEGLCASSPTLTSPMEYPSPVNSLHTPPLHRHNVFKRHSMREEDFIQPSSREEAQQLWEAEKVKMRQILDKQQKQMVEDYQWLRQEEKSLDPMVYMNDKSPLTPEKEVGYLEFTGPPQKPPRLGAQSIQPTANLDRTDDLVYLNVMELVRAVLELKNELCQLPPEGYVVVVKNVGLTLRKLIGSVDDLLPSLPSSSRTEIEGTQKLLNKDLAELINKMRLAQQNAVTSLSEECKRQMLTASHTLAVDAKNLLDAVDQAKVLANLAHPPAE

For one compound, remaining activity results are on record in PMC11864979, “First-in-class ultralong-target-residence-time p38α inhibitors as a mitosis-targeted therapy for colorectal cancer” (Nature Cancer, 2025).

Like-named read-outs stand apart in the source and are kept apart here.

As to `CNC(=O)c1ccc2c(c1)C(=O)c1ccc(Nc3ccc(F)c(NC(=O)C4CC4)c3)cc1CC2` [Compound 2015], the remaining activity at 0.2 µM at 340 wild-type kinases [1] (0.2 µM 2015, read-out: TLK1 residual activity) worked out at 122%; on 340 wild-type kinases [1] (TLK1, 0.2 µM, read-out: residual activity), 122%; at 340 wild-type kinases [2] (0.2 µM 2015, read-out: CDK8/CycC residual activity), 92.5%; on 340 wild-type kinases [2] (CDK8/CycC, 0.2 µM, read-out: residual activity), 92.5%; at 340 wild-type kinases [3] (0.2 µM 2015, read-out: COT residual activity), 98.6%; at 340 wild-type kinases [3] (COT, 0.2 µM, read-out: residual activity), 98.6%. For the same compound, the remaining activity at 0.2 µM on 340 wild-type kinases [4] (0.2 µM 2015, read-out: EPHB4 residual activity) amounted to 101%; at 340 wild-type kinases [4] (EPHB4, 0.2 µM, read-out: residual activity), 101%; on 340 wild-type kinases [5] (0.2 µM 2015, read-out: PYK2 residual activity), 98.8%; on 340 wild-type kinases [5] (PYK2, 0.2 µM, read-out: residual activity), 98.8%. Besides, the remaining activity at 1 µM at 340 wild-type kinases [1] (1 µM 2015, read-out: TLK1 residual activity) amounted to 105%; at 340 wild-type kinases [1] (TLK1, 1 µM, read-out: residual activity) it was 105%; on 340 wild-type kinases [2] (1 µM 2015, read-out: CDK8/CycC residual activity), 85.2%; at 340 wild-type kinases [2] (CDK8/CycC, 1 µM, read-out: residual activity), 85.2%; at 340 wild-type kinases [3] (1 µM 2015, read-out: COT residual activity), 97.4%; on 340 wild-type kinases [3] (COT, 1 µM, read-out: residual activity) it was 97.4%. The remaining activity at 1 µM was 91.8% at 340 wild-type kinases [4] (1 µM 2015, read-out: EPHB4 residual activity); 91.8% on 340 wild-type kinases [4] (EPHB4, 1 µM, read-out: residual activity); 86.1% at 340 wild-type kinases [5] (1 µM 2015, read-out: PYK2 residual activity); 86.1% at 340 wild-type kinases [5] (PYK2, 1 µM, read-out: residual activity).
